Assays:
Coagulation factor X [1] = biological target: T1, Coagulation factor X (Homo sapiens, UniProt P00742); assay: Second-order rate constant of factor Xa inhibition
Coagulation factor X [2] = biological target: T1, Coagulation factor X; assay: Inhibitory activity against Plasma coagulation enzyme factor Xa; Value expressed as k Act/k UNCAT (uncatalyzed); type: cell-free
Coagulation factor X [3] = biological target: T1, Coagulation factor X; assay: Equilibrium dissociation constant of factor Xa inhibition

T1 sequence (P00742 41-179 limits assumed): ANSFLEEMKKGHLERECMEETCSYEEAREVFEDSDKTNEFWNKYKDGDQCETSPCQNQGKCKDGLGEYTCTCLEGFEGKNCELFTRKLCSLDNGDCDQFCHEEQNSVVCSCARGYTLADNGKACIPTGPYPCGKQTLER
T1 sequence (P00742 235-488 limits assumed): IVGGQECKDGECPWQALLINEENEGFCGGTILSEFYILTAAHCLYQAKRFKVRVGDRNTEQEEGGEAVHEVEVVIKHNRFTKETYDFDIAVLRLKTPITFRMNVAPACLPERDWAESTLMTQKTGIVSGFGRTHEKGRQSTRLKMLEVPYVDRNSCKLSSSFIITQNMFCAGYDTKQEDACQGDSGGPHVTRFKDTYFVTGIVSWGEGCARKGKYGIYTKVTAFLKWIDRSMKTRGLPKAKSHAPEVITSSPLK

Row | Compound | k act (Coagulation factor X [1]) [M⁻¹ s⁻¹] | Acceleration (Coagulation factor X [2]) | Kd (Coagulation factor X [3]) [µM]
1 | CO[C@@H]1O[C@@H](C(=O)O)[C@@H](O[C@H]2OC(COS(=O)(=O)O)=C[C@H](OS(=O)(=O)O)[C@H]2NS(=O)(=O)O)[C@H](O)[C@H]1OS(=O)(=O)O | 6400 | 19.7 | 95
2 | O=c1c(OS(=O)(=O)O)c(-c2ccc(OS(=O)(=O)O)c(OS(=O)(=O)O)c2)oc2cc(OS(=O)(=O)O)cc(OS(=O)(=O)O)c12 | 5700 | 17.5 | 17
3 | O=S(=O)(O)Oc1cc2c(c(OS(=O)(=O)O)c1)C[C@@H](OS(=O)(=O)O)[C@H](c1ccc(OS(=O)(=O)O)c(OS(=O)(=O)O)c1)O2 | 6750 | 20.8 | 3.5
4 | O=S(=O)(O)Oc1cc2c(c(OS(=O)(=O)O)c1)C[C@H](OS(=O)(=O)O)[C@H](c1ccc(OS(=O)(=O)O)c(OS(=O)(=O)O)c1)O2 | 3380 | 10.4 | 10.7
5 | O=S(=O)(O)Oc1cc2c(c(OS(=O)(=O)O)c1)CC(OS(=O)(=O)O)C(c1ccc(OS(=O)(=O)O)c(OS(=O)(=O)O)c1)O2 (stereo unspecified) | 2770 | 8.5 | 26.1
6 | CO[C@H]1O[C@H](COS(=O)(=O)O)[C@@H](O[C@@H]2O[C@H](C(=O)O)[C@@H](O[C@H]3O[C@H](COS(=O)(=O)O)[C@@H](O)[C@H](O)[C@H]3NS(=O)(=O)O)[C@H](O)[C@H]2O)[C@H](OS(=O)(=O)O)[C@H]1NS(=O)(=O)O | 45000 | 320 | 2
7 | O=c1c(OS(=O)(=O)O)c(-c2ccc(OS(=O)(=O)O)cc2OS(=O)(=O)O)oc2cc(OS(=O)(=O)O)cc(OS(=O)(=O)O)c12 | 7100 | 21.8 | 1.8
